In US8822444B2, “Hepatitis C virus inhibitors” (Bristol-Myers Squibb Company, priority 2009, dated 2014):

Each molecule was assayed on HCV 1b genotype (assay: HCV Replicon assay). Details: HCV 1b genotype replicon; read-out: 1b EC50 Range.
Assay type: cell-based
Procedure: An HCV Replicon assay was utilized in the present disclosure, and was prepared, conducted and validated as described in commonly owned PCT/US2006/022197 and in O'Boyle et. al. Antimicrob Agents Chemother. 2005 April; 49(4):1346-53. Assay methods incorporating luciferase reporters have also been used as described (Apath.com).
HCV-neo replicon cells and replicon cells containing mutations in the NS5A region were used to test the currently described family of compounds. The compounds were determined to have more than 10-fold less inhibitory activity on cells containing mutations than wild-type cells. Thus, the compounds of the present disclosure can be effective in inhibiting the function of the HCV NS5A protein and are understood to be as effective in combinations as previously described in application PCT/US2006/022197 and commonly owned WO/04014852. Further, the compounds of the present disclosure can be effective against the HCV 1b genotype. It should also be understood that the compounds of the present disclosure can inhibit multiple genotypes of HCV. […] In one embodiment, compounds of the present disclosure are inhibitory versus 1a, 1b, 2a, 2b, 3a, 4a, and 5a genotypes.

SMILES | EC50 [nM]
CCN(CC)[C@@H](C(=O)N1CCC[C@H]1c1nc(C2=CCC(C3CC=C(c4c[nH]c([C@@H]5CCCN5C(=O)[C@@H](c5ccccc5)N(CC)CC)n4)CC3)CC2)c[nH]1)c1ccccc1 (stereo partly drawn) [QC-3, (1R,1′R)-2,2′-(1,1′-bi(3-cyclohexen-1-yl)-4,4′-diylbis(1H-imidazole-4,2-diyl(2S)-2,1-pyrrolidinediyl))bis(N,N-diethyl-2-oxo-1-phenylethanamine)] | 2 to 4.57
COC(=O)N[C@@H](C)C(=O)N1CCC[C@H]1c1nc(C2=CCC(c3ccc(-c4c[nH]c([C@@H]5CCCN5C(=O)[C@H](C)NC(=O)OC)n4)cc3)CC2)c[nH]1 (stereo partly drawn) [QC-10, methyl ((1S)-2-((2S)-2-(4-(4-(4-(2-((2S)-1-(N-(methoxycarbonyl)-1-alanyl)-2-pyrrolidinyl)-1H-imidazol-4-yl)-3-cyclohexen-1-yl)phenyl)-1H-imidazol-2-yl)-1-pyrrolidinyl)-1-methyl-2-oxoethyl)carbamate] | 4.57 to 99
COC(=O)N[C@H](C(=O)N1CCC[C@H]1c1nc(-c2ccc(C3CCC(c4c[nH]c([C@@H]5CCCN5C(=O)[C@@H](NC(=O)OC)C(C)C)n4)CC3)cc2)c[nH]1)C(C)C (stereo partly drawn) [QC-17, methyl ((1S)-1-(((2S)-2-(4-(4-(4-(2-((2S)-1-((2S)-2-((methoxycarbonyl)amino)-3-methylbutanoyl)pyrrolidin-2-yl)-1H-imidazol-4-yl)phenyl)cyclohexyl)-1H-imidazol-2-yl)pyrrolidin-1-yl)carbonyl)-2-methylpropyl)carbamate] | 2 to 4.57
COC(=O)N[C@@H](C)C(=O)N1CCC[C@H]1c1nc(C2=CCC(C3CC=C(c4c[nH]c([C@@H]5CCCN5C(=O)[C@H](C)NC(=O)OC)n4)CC3)CC2)c[nH]1 (stereo partly drawn) [QC-2, methyl ((1S)-2-((2S)-2-(4-(4′-(2-((2S)-1-(N-(methoxycarbonyl)-L-alanyl)-2-pyrrolidinyl)-1H-imidazol-4-yl)-1,1′-bi(3-cyclohexen-1-yl)-4-yl)-1H-imidazol-2-yl)-1-pyrrolidinyl)-1-methyl-2-oxoethyl)carbamate] | 4.57 to 99
COC(=O)N[C@H](C(=O)N1CCC[C@H]1c1nc(C2=CCC(C3CC=C(c4c[nH]c([C@@H]5CCCN5C(=O)[C@@H](NC(=O)OC)[C@@H](C)OC)n4)CC3)CC2)c[nH]1)[C@@H](C)OC (stereo partly drawn) [QC-5, methyl ((1S,2R)-2-methoxy-1-(((2S)-2-(4-(4′-(2-((2S)-1-(N-(methoxycarbonyl)-O-methyl-L-threonyl)-2-pyrrolidinyl)-1H-imidazol-4-yl)-1,1′-bi(3-cyclohexen-1-yl)-4-yl)-1H-imidazol-2-yl)-1-pyrrolidinyl)carbonyl)propyl)carbamate] | 2 to 4.57

Same assay, conditions: Hepatitis C virus; HCV 1b genotype replicon; read-out: 1b EC50 (in nM or range)

SMILES | EC50 [nM]
COC(=O)N[C@H](C(=O)N1CCC[C@H]1c1nc(C2=CCC(c3ccc(-c4c[nH]c([C@@H]5CCCN5C(=O)[C@@H](NC(=O)OC)C(C)C)n4)cc3)CC2)c[nH]1)C(C)C (mixture of isomers) [QC-9, methyl ((1S)-1-(((2S)-2-(4-(4-(4-(2-((2S)-1-((2S)-2-((methoxycarbonyl)amino)-3-methylbutanoyl)-2-pyrrolidinyl)-1H-imidazol-4-yl)phenyl)-1-cyclohexen-1-yl)-1H-imidazol-2-yl)-1-pyrrolidinyl)carbonyl)-2-methylpropyl)carbamate] | 0.011
COC[C@H](NC(=O)OC)C(=O)N1CCC[C@H]1c1nc(C2CCC(C3CCC(c4c[nH]c([C@@H]5CCCN5C(=O)[C@H](COC)NC(=O)OC)n4)CC3)CC2)c[nH]1 (stereo partly drawn) [QC-7, methyl ((1S)-2-((2S)-2-(4-(4′-(2-((2S)-1-(N-(methoxycarbonyl)-O-methyl-L-seryl)-2-pyrrolidinyl)-1H-imidazol-4-yl)-1,1′-bi(cyclohexyl)-4-yl)-1H-imidazol-2-yl)-1-pyrrolidinyl)-1-(methoxymethyl)-2-oxoethyl)carbamate] | 17.1
COC(=O)N[C@H](C(=O)N1CCC[C@H]1c1nc(C2CCC(C3CCC(c4c[nH]c([C@@H]5CCCN5C(=O)[C@@H](NC(=O)OC)[C@@H](C)OC)n4)CC3)CC2)c[nH]1)[C@@H](C)OC (stereo partly drawn) [QC-8, methyl ((1S,2R)-2-methoxy-1-(((2S)-2-(4-(4′-(2-((2S)-1-(N-(methoxycarbonyl)-O-methyl-L-threonyl)-2-pyrrolidinyl)-1H-imidazol-4-yl)-1,1′-bi(cyclohexyl)-4-yl)-1H-imidazol-2-yl)-1-pyrrolidinyl)carbonyl)propyl)carbamate] | 2.4

Same assay, conditions: Hepatitis C virus; HCV 1b genotype replicon; read-out: 1b EC50 Range

SMILES | EC50 [nM]
COC(=O)N[C@H](C(=O)N1CCC[C@H]1c1nc(-c2ccc(N3CCC(c4c[nH]c([C@@H]5CCCN5C(=O)[C@@H](NC(=O)OC)C(C)(C)C)n4)CC3)cc2)c[nH]1)C(C)(C)C [QC-15, methyl ((1S)-1-(((2S)-2-(4-(1-(4-(2-((2S)-1-((2S)-2-((methoxycarbonyl)amino)-3,3-dimethylbutanoyl)-2-pyrrolidinyl)-1H-imidazol-4-yl)phenyl)-4-piperidinyl)-1H-imidazol-2-yl)-1-pyrrolidinyl)carbonyl)-2,2-dimethylpropyl)carbamate] | 4.57 to 99
COC[C@H](NC(=O)OC)C(=O)N1CCC[C@H]1c1nc(-c2ccc(N3CCC(c4c[nH]c([C@@H]5CCCN5C(=O)[C@H](COC)NC(=O)OC)n4)CC3)cc2)c[nH]1 [QC-14, methyl ((1S)-2-((2S)-2-(4-(4-(4-(2-((2S)-1-(N-(methoxycarbonyl)-O-methyl-L-seryl)-2-pyrrolidinyl)-1H-imidazol-4-yl)-1-piperidinyl)phenyl)-1H-imidazol-2-yl)-1-pyrrolidinyl)-1-(methoxymethyl)-2-oxoethyl)carbamate] | 100 to 999
COC(=O)N[C@H](C(=O)N1CCC[C@H]1c1nc(C2=CCC(c3ccc(-c4c[nH]c([C@@H]5CCCN5C(=O)[C@@H](NC(=O)OC)C(C)C)n4)cc3)CC2)c[nH]1)C(C)C (mixture of isomers) [QC-9, methyl ((1S)-1-(((2S)-2-(4-(4-(4-(2-((2S)-1-((2S)-2-((methoxycarbonyl)amino)-3-methylbutanoyl)-2-pyrrolidinyl)-1H-imidazol-4-yl)phenyl)-1-cyclohexen-1-yl)-1H-imidazol-2-yl)-1-pyrrolidinyl)carbonyl)-2-methylpropyl)carbamate] | 2 to 4.57
COC(=O)N[C@@H](C(=O)N1[C@@H]2C[C@@H]2C[C@H]1c1ncc(-c2ccc(C34CCC(c5cnc([C@@H]6C[C@H]7C[C@H]7N6C(=O)[C@H](NC(=O)OC)c6ccccc6)[nH]5)(CC3)CC4)cc2)[nH]1)c1ccccc1 [Example M-7, methyl ((1R)-2-((1R,3S,5R)-3-(5-(4-(4-(2-((1R,3S,5R)-2-((2R)-2-((methoxycarbonyl)amino)-2-phenylacetyl)-2-azabicyclo[3.1.0]hex-3-yl)-1H-imidazol-5-yl)bicyclo[2.2.2]oct-1-yl)phenyl)-1H-imidazol-2-yl)-2-azabicyclo[3.1.0]hex-2-yl)-2-oxo-1-phenylethyl)carbamate] | 2 to 4.57
COC(=O)N[C@H](C(=O)N1CCC[C@H]1c1nc(-c2ccc(C3CCC(c4c[nH]c([C@@H]5CCCN5C(=O)[C@@H](NC(=O)OC)C(C)C)n4)CC3)cc2)c[nH]1)C(C)C (single isomer, unassigned) [QC-16] | 2 to 4.57
COC(=O)N[C@@H](C)C(=O)N1CCC[C@H]1c1nc(C2CCC(C3CCC(c4c[nH]c([C@@H]5CCCN5C(=O)[C@H](C)NC(=O)OC)n4)CC3)CC2)c[nH]1 (stereo partly drawn) [QC-6, methyl ((1S)-2-((2S)-2-(4-(4′-(2-((2S)-1-(N-(methoxycarbonyl)-L-alanyl)-2-pyrrolidinyl)-1H-imidazol-4-yl)-1,1′-bi(cyclohexyl)-4-yl)-1H-imidazol-2-yl)-1-pyrrolidinyl)-1-methyl-2-oxoethyl)carbamate] | 100 to 999
COC(=O)N[C@H](C(=O)N1CCC[C@H]1c1nc(-c2ccc(N3CCC(c4c[nH]c([C@@H]5CCCN5C(=O)[C@@H](NC(=O)OC)C(C)C)n4)CC3)cc2)c[nH]1)C(C)C [QC-13, methyl ((1S)-1-(((2S)-2-(4-(1-(4-(2-((2S)-1-((2S)-2-((methoxycarbonyl)amino)-3-methylbutanoyl)-2-pyrrolidinyl)-1H-imidazol-4-yl)phenyl)-4-piperidinyl)-1H-imidazol-2-yl)-1-pyrrolidinyl)carbonyl)-2-methylpropyl)carbamate] | 4.57 to 99
COC[C@H](NC(=O)OC)C(=O)N1CCC[C@H]1c1nc(C2CCC(C3CCC(c4c[nH]c([C@@H]5CCCN5C(=O)[C@H](COC)NC(=O)OC)n4)CC3)CC2)c[nH]1 (stereo partly drawn) [QC-7, methyl ((1S)-2-((2S)-2-(4-(4′-(2-((2S)-1-(N-(methoxycarbonyl)-O-methyl-L-seryl)-2-pyrrolidinyl)-1H-imidazol-4-yl)-1,1′-bi(cyclohexyl)-4-yl)-1H-imidazol-2-yl)-1-pyrrolidinyl)-1-(methoxymethyl)-2-oxoethyl)carbamate] | 1000 to 10000
COC(=O)N[C@H](C(=O)N1CCC[C@H]1c1nc(C2CCC(C3CCC(c4c[nH]c([C@@H]5CCCN5C(=O)[C@@H](NC(=O)OC)[C@@H](C)OC)n4)CC3)CC2)c[nH]1)[C@@H](C)OC (stereo partly drawn) [QC-8, methyl ((1S,2R)-2-methoxy-1-(((2S)-2-(4-(4′-(2-((2S)-1-(N-(methoxycarbonyl)-O-methyl-L-threonyl)-2-pyrrolidinyl)-1H-imidazol-4-yl)-1,1′-bi(cyclohexyl)-4-yl)-1H-imidazol-2-yl)-1-pyrrolidinyl)carbonyl)propyl)carbamate] | 100 to 999
COC(=O)N[C@H](C(=O)N1[C@@H]2C[C@@H]2C[C@H]1c1nc(Cl)c(-c2ccc(C34CCC(c5[nH]c([C@@H]6C[C@H]7C[C@H]7N6C(=O)[C@@H](NC(=O)OC)C(C)C)nc5Cl)(CC3)CC4)cc2)[nH]1)C(C)C [Example M-8, methyl ((1S)-1-(((1R,3S,5R)-3-(4-chloro-5-(4-(4-(4-chloro-2-((1R,3S,5R)-2-((2S)-2-((methoxycarbonyl)amino)-3-methylbutanoyl)-2-azabicyclo[3.1.0]hex-3-yl)-1H-imidazol-5-yl)bicyclo[2.2.2]oct-1-yl)phenyl)-1H-imidazol-2-yl)-2-azabicyclo[3.1.0]hex-2-yl)carbonyl)-2-methylpropyl)carbamate] | 2 to 4.57
COC(=O)N[C@@H](C(=O)N1CCC[C@H]1c1nc(-c2ccc(C34CCC(c5c[nH]c([C@@H]6CCCN6C(=O)[C@H](NC(=O)OC)c6ccccc6)n5)(CC3)CC4)cc2)c[nH]1)c1ccccc1 [Example M-3, methyl ((1R)-2-((2S)-2-(4-(4-(4-(2-((2S)-1-((2R)-2-((methoxycarbonyl)amino)-2-phenylacetyl)-2-pyrrolidinyl)-1H-imidazol-4-yl)bicyclo[2.2.2]oct-1-yl)phenyl)-1H-imidazol-2-yl)-1-pyrrolidinyl)-2-oxo-1-phenylethyl)carbamate] | 2 to 4.57
COC(=O)N[C@H](C(=O)N1CCC[C@H]1c1nc(C2=CCC(c3ccc(-c4c[nH]c([C@@H]5CCCN5C(=O)[C@@H](NC(=O)OC)[C@@H](C)OC)n4)cc3)CC2)c[nH]1)[C@@H](C)OC (stereo partly drawn) [QC-12, methyl ((1S,2R)-2-methoxy-1-(((2S)-2-(4-(4-(4-(2-((2S)-1-(N-(methoxycarbonyl)-O-methyl-L-threonyl)-2-pyrrolidinyl)-1H-imidazol-4-yl)-3-cyclohexen-1-yl)phenyl)-1H-imidazol-2-yl)-1-pyrrolidinyl)carbonyl)propyl)carbamate] | 4.57 to 99
